This is an account of results in patent US11180504B2 (ORCHID PHARMA LTD., priority 2016, dated 2021).

In brackets after ≈: the same amount, converted by molar mass. Read-outs that look alike come from different tables or passages of the source.

Test [1] deals with carbapenem sensitive Escherichia coli. In words: MIC by broth micro-dilution (CLSI), carbapenem sensitive E. coli. The class given is cell-based.
The subject of test [2] is methicillin-sensitive Staphylococcus aureus. The test can be described thus: MIC by broth micro-dilution (CLSI), methicillin-sensitive S. aureus. The class given is cell-based. As to conditions: MSSA S. aureus ATCC29213. A general note: Dilution methods test growth across graded concentrations, often in twofold steps.
Test [3] deals with carbapenem sensitive Pseudomonas aeruginosa. The test can be described thus: MIC by broth micro-dilution (CLSI), carbapenem sensitive P. aeruginosa. The class given is cell-based.
Test [4] concerns carbapenemase producing K. pneumoniae. The test can be described thus: MIC by broth micro-dilution (CLSI), carbapenemase producing K. pneumoniae. Type of test: cell-based, Klebsiella pneumoniae.
Where [5] appears, read: Escherichia coli, ATCC25922, ESBL −ve E. coli ATCC25922, read-out: MIC.
[6] abbreviates: Staphylococcus aureus, ATCC 29213 / MSSA, read-out: MIC.
Setting [7] is: Pseudomonas aeruginosa, ATCC27853, Meropenem susceptible P. aeruginosa ATCC27853, read-out: MIC.
[8] abbreviates: Klebsiella pneumoniae, ATCCBAA1705, KPC-2 K. pneumoniae ATCC BAA-1705, read-out: MIC.

For the compound `C[C@@H](NC(=O)Cn1cnnn1)[C@H]1C(=O)N2C(C(=O)O)=C(S[C@@H]3CN[C@H](C(=O)N4CC(N5CCNCC5)C4)C3)[C@H](C)[C@H]12` [Example 429, (4R,5S,6R)-6-((R)-1-(2-(1H-tetrazol-1-yl)acetamido)ethyl)-4-methyl-7-oxo-3-((3S,5S)-5-(3-(piperazin-1-yl)azetidine-1-carbonyl)pyrrolidin-3-ylthio)-1-azabicyclo[3.2.0]hept-2-ene-carboxylic acid], the MIC (commonly the lowest concentration that inhibits growth of the organism) in test [1] (setting [5]) is 0.25 µg/mL (≈ 0.425 µM); in test [2] (setting [6]), 4 µg/mL (≈ 6.79 µM); in test [3] (setting [7]), 2 µg/mL (≈ 3.4 µM); in test [4] (setting [8]), 2 µg/mL (≈ 3.4 µM).

In the case of `C[C@@H](NC(=O)Cn1cnnn1)[C@H]1C(=O)N2C(C(=O)O)=C(S[C@@H]3CN[C@H](C(=O)N4CC[C@H](NC(=N)N)C4)C3)[C@H](C)[C@H]12` [Example 582, (4R,5S,6R)-6-((R)-1-(2-(1H-tetrazol-1-yl)acetamido)-ethyl)-3-((3S,5S)-5-((S)-3-guanidino-pyrrolidine-1-carbonyl)pyrrolidin-3-ylthio)-4-methyl-7-oxo-1-azabicyclo[3.2.0]hept-ene-2-carboxylic acid], the MIC in test [1] (setting [5]) turned out to be 0.25 µg/mL (≈ 0.434 µM); in test [2] (setting [6]), 2 µg/mL (≈ 3.47 µM); in test [3] (setting [7]), 0.5 µg/mL (≈ 0.869 µM); in test [4] (setting [8]) it was 2 µg/mL (≈ 3.47 µM).

Regarding `CCOC(=O)c1nnnn1CC(=O)N[C@H](C)[C@H]1C(=O)N2C(C(=O)O)=C(S[C@@H]3CN[C@H](C(=O)N4CC[C@@H](N)C4)C3)[C@H](C)[C@H]12` [Example 339, (4R,5S,6R)-3-((3S,5S)-5-((R)-3-aminopyrrolidine-1-carbonyl)pyrrolidin-3-ylthio)-6-((R) - 1-(2-(5-(ethoxycarbonyl) - 1H-tetrazol-1-yl)acetamido)ethyl)-4-methyl-7-oxo-1-azabicyclo[3.2.0]bept-2-ene-2-carboxylic acid], the MIC in test [1] (setting [5]) worked out at 1 µg/mL (≈ 1.65 µM); in test [2] (setting [6]) it was 8 µg/mL (≈ 13.2 µM); in test [3] (setting [7]), 32 µg/mL (≈ 52.8 µM); in test [4] (setting [8]) it was 32 µg/mL (≈ 52.8 µM).

Consider `C[C@@H](NC(=O)Cn1cnnn1)[C@H]1C(=O)N2C(C(=O)O)=C(S[C@@H]3CN[C@H](C(=O)N4CC5(CCNCC5)C4)C3)[C@H](C)[C@H]12` [Example 366], for which the MIC in test [1] (setting [5]) was 0.25 µg/mL (≈ 0.436 µM); in test [2] (setting [6]), 4 µg/mL (≈ 6.97 µM); in test [3] (setting [7]) it was 2 µg/mL (≈ 3.49 µM); in test [4] (setting [8]), 2 µg/mL (≈ 3.49 µM).

Turning to `C[C@@H](NC(=O)Cn1cnnn1)[C@H]1C(=O)N2C(C(=O)O)=C(S[C@@H]3CN[C@H](C(=O)N4CC5(CC(N)CO5)C4)C3)[C@H](C)[C@H]12` (single isomer, unassigned) [Example 531], the MIC in test [1] (ESBL −ve E. coli ATCC25922) came to 0.125 µg/mL (≈ 0.217 µM); in test [2], 4 µg/mL (≈ 6.95 µM); in test [3] (Meropenem susceptible P. aeruginosa ATCC27853), 1 µg/mL (≈ 1.74 µM); in test [4] (KPC-2 K. pneumoniae ATCC BAA-1705), 2 µg/mL (≈ 3.47 µM).

As to `C[C@@H](NC(=O)Cn1cnnn1)[C@H]1C(=O)N2C(C(=O)O)=C(S[C@@H]3CN[C@H](C(=O)N4CC[C@@H](N(C)C)C4)C3)[C@H](C)[C@H]12` [Example 410, (4R,5S,6R)-6-((R)-1-(2-(1H-tetrazol-1-yl)acetamido)ethyl)-3-((3S,5S)-5-((R)-3-(dimethylamino)pyrrolidine-1-carbonyl)pyrrolidin-3-ylthio)-4-methyl-7-oxo-1-azabicyclo[3.2.0]hept-2-ene-2-carboxylic acid], the MIC in test [1] (setting [5]) was determined as 0.5 µg/mL (≈ 0.89 µM); in test [2] (setting [6]), 2 µg/mL (≈ 3.56 µM); in test [3] (setting [7]) it was 4 µg/mL (≈ 7.12 µM); in test [4] (setting [8]), 4 µg/mL (≈ 7.12 µM).

In the case of `C[C@@H](NC(=O)Cn1cnnn1)[C@H]1C(=O)N2C(C(=O)O)=C(S[C@@H]3CN[C@H](C(=O)N4CCC5(CCCCN5)CC4)C3)[C@H](C)[C@H]12` [Example 418, (4R,5S,6R)-3-((3S,5S)-5-(1,9-diazaspiro[5.5]undecane-9-carbonyl)pyrrolidin-3-ylthio)-6-((R)-1-(2-(1H-tetrazol-1-yl)acetamido)ethyl)-4-methyl-7-oxo-1-azabicyclo[3.2.0]hept-2-ene-2-carboxylic acid], the minimum inhibitory concentration (MIC) in test [1] (setting [5]) worked out at 1 µg/mL (≈ 1.66 µM); in test [2] (setting [6]) it was 8 µg/mL (≈ 13.3 µM); in test [3] (setting [7]), 8 µg/mL (≈ 13.3 µM); in test [4] (setting [8]), 4 µg/mL (≈ 6.65 µM).

For the compound `C[C@@H](NC(=O)CNC(=N)N)[C@H]1C(=O)N2C(C(=O)O)=C(S[C@@H]3CN[C@H](C(=O)N(C)C)C3)[C@H](C)[C@H]12` [Example 241], the MIC worked out at 2 µg/mL (≈ 4.15 µM) in test [1] (setting [5]), 16 µg/mL (≈ 33.2 µM) in test [2] (setting [6]), 32 µg/mL (≈ 66.4 µM) in test [3] (setting [7]) and 2 µg/mL (≈ 4.15 µM) in test [4] (setting [8]).

As for `C[C@@H](NC(=O)Cn1cnnn1)[C@H]1C(=O)N2C(C(=O)O)=C(S[C@@H]3CN[C@H](C(=O)N(C)C)C3)[C@H](C)[C@H]12` [Example 283], the MIC in test [1] (setting [5]) amounted to 0.25 µg/mL (≈ 0.508 µM); in test [2] (setting [6]) it was 16 µg/mL (≈ 32.5 µM); in test [3] (setting [7]), 8 µg/mL (≈ 16.2 µM); in test [4] (setting [8]), 0.5 µg/mL (≈ 1.02 µM).

For the compound `C[C@@H](NC(=O)Cn1cnnn1)[C@H]1C(=O)N2C(C(=O)O)=C(S[C@@H]3CN[C@H](C(=O)N4CCN(C(=O)CN)CC4)C3)[C@H](C)[C@H]12` [Example 395, (4R,5S,6R)-6-((R)-1-(2-(1H-tetrazol-1-yl)acetamido)ethyl)-3-((3S,5S)-5-(4-(2-aminoacetyl)piperazine-1-carbonyl)pyrrolidin-3-ylthio)-4-methyl-7-oxo-1-azabicyclo[3.2.0]hept-2-ene-2-carboxylic acid], the minimal inhibitory concentration (MIC) in test [1] (setting [5]) worked out at 0.125 µg/mL (≈ 0.212 µM); in test [2] (setting [6]), 2 µg/mL (≈ 3.39 µM); in test [3] (setting [7]), 1 µg/mL (≈ 1.69 µM); in test [4] (setting [8]) it was 1 µg/mL (≈ 1.69 µM).

For `C[C@@H](NC(=O)Cn1cnnn1)[C@H]1C(=O)N2C(C(=O)O)=C(S[C@@H]3CN[C@H](C(=O)N4CCN(C(=O)CCN)CC4)C3)[C@H](C)[C@H]12` [Example 419, (4R,5S,6R)-6-((R)-1-(2-(1H-tetrazol-1-yl)acetamido)ethyl)-3-((3S,5S)-5-(4-(3-aminopropanoyl)piperazine-1-carbonyl)pyrrolidin-3-ylthio)-4-methyl-7-oxo-1-azabicyclo[3.2.0]hept-2-ene-2-carboxylic acid], the MIC in test [1] (setting [5]) was found to be 0.25 µg/mL (≈ 0.413 µM); in test [2] (setting [6]), 4 µg/mL (≈ 6.61 µM); in test [3] (setting [7]) it was 1 µg/mL (≈ 1.65 µM); in test [4] (setting [8]), 1 µg/mL (≈ 1.65 µM).

On to `CC(=O)N1C[C@@H](N)C[C@H]1CSC1=C(C(=O)O)N2C(=O)[C@H]([C@@H](C)NC(=O)C(F)F)[C@H]2[C@H]1C` [Example 265], for which the MIC was 2 µg/mL (≈ 4.34 µM) in test [1] (setting [5]), 2 µg/mL (≈ 4.34 µM) in test [2] (setting [6]), greater than 128 µg/mL in test [3] (setting [7]) and 8 µg/mL (≈ 17.4 µM) in test [4] (setting [8]).

Turning to `C[C@@H](NC(=O)Cn1cnnn1)[C@H]1C(=O)N2C(C(=O)O)=C(S[C@@H]3CN[C@H](C(=O)N4CC5(CCNC5)C4)C3)[C@H](C)[C@H]12` [Example 501, (4R,5S,6R)-6-((R)-1-(2-(1H-tetrazol-1-yl)acetamido)ethyl)-3-((3S,5S)-5-(2,6-diazaspiro[3,4]octane-2-carbonyl)pyrrolidin-3-ylthio)-4-methyl-7-oxo-1-azabicyclo[3.2.0]hept-2-ene-2-carboxylic acid], the MIC was determined as 0.25 µg/mL (≈ 0.447 µM) in test [1] (setting [5]), 4 µg/mL (≈ 7.15 µM) in test [2] (setting [6]), 1 µg/mL (≈ 1.79 µM) in test [3] (setting [7]) and 1 µg/mL (≈ 1.79 µM) in test [4] (setting [8]).
